Patent US20120225896A1, “NOVEL 2-PYRIDONE DERIVATIVE AND PHARMACEUTICAL PRODUCT CONTAINING SAME” (KOWA COMPANY, LTD., priority 2009, published 2012)
Where two headings read alike, the source gives them in different places.

Key:
[1] = biological target: T1, human PPARγ2 (Homo sapiens, UniProt P37231); test: PPARγ activation activity, Gal4-PPARγ2 LBD chimera luciferase transfection assay in COST cells; assay type: cell-based
T1 construct: the amino acids 182 to 505 of human PPARγ2; expressed in transfected cells; African green monkey kidney
Protocol: PPARγ Activation Activity
The agonistic activity of the compounds of the invention on PPARγ was measured based on the transfection assay using COST cells (DS Pharma Biomedical Co., Ltd., Osaka, Japan), which are the cell line derived from the kidney of the African green monkey. COST cells were cultured under 5% CO2 concentration, and DMEM medium containing 10% fetal bovine serum, glutamic acid, and antibiotics was used as a medium.
As an expression vector, a chimera in which DNA binding domain of Ga14, which is a yeast transcription factor, and ligand binding domain of human PPARγ2 are fused, i.e., a fused product between the amino acids 1 to 147 of Gal4 transcription factor and the amino acids 182 to 505 of human PPARγ2, was used. Furthermore, as a reporter vector, a firefly luciferase containing five copies of Gal4 recognition sequence in the promoter region was used. Plasmid transfection to the cells was performed according to a method which uses jetPEI (trade name, manufactured by Funakoshi Co., Ltd., Tokyo, Japan). Furthermore, β-galactosidase expression vector was employed as an internal standard.
After the transfection of the cells, the medium was replaced with a DMEM medium (containing 1% serum) added with the test compound, and the cells were further cultured for 16 hours. After that, the luciferase activity and β-galactosidase activity in the cell lysis solution were measured.
For the present test, dimethyl sulfoxide (DMSO) was used for dissolution and dilution of the test compounds, and during the cell treatment, the DMSO concentration in DMEM medium (containing 1% serum) was adjusted to 0.1%. The 50% effective concentration of the test compound (EC50, 50% effect concentration) was calculated by using SAS Preclinical Package Ver 5.0 (trade name, manufactured by SAS institute Japan Co., Tokyo, Japan), which is a statistical analysis program.
As shown in the Table 2, it was confirmed that the compounds of the present invention have a potent PPARγ activation activity. Under the same condition, the PPARγ activation activity of telmisartan, i.e., EC50, was 1 to 5 μM.

[2] = biological target: T2, angiotensin II type 1 receptor (Oryctolagus cuniculus, UniProt P34976); test: Angiotensin II antagonistic activity in isolated rabbit blood vessels (angiotensin II-induced contraction of thoracic aorta ring); assay type: cell-based; settings: angiotensin II (10 nM)-induced contraction, 37° C.
T2 construct: By using a specimen of isolated rabbit blood vessels; from tissue; host or cells: rabbit thoracic aorta ring (New Zealand White, male)
T2 sequence (P34976 1-359): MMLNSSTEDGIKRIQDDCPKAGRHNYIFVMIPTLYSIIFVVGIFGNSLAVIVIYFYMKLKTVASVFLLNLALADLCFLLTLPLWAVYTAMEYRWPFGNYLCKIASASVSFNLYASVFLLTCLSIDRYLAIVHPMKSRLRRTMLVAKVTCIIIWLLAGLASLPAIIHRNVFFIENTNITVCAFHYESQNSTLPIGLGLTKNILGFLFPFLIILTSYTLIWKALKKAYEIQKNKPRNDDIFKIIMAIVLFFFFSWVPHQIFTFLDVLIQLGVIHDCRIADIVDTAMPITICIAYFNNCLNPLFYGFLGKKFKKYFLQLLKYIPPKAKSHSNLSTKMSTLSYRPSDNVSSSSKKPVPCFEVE
Text: Angiotensin II Antagonistic Activity in Isolated Rabbit Blood Vessels
By using a specimen of isolated rabbit blood vessels, antagonistic activity of the compounds of the invention against angiotensin II type 1 receptor was estimated from a dose-response curve of angiotensin II-induced blood vessel contraction. Specifically, the specimen of thoracic aorta ring of a rabbit (New Zealand White: male, 2.4 to 3.0 kg) was suspended in a magnus bath filled with Krebs-Henseleite buffer (composition: 118 mM NaCl, 4.7 mM KCl, 2.55 mM CaCl2, 1.18 mM MgSO4, 1.18 mM KH2PO4, 24.88 mM NaHCO3, and 11.1 mM D-glucose), and angiotensin II (10 nM)-induced contraction was obtained in the presence of the compounds of each example (1 nmol/L to 10 μmol/L). During the measurement, the inside temperature of the magnus bath was maintained at 37° C. and the bath was continuously ventilated with a sufficient amount of mixed gas (95% O2 and 5% CO2). The angiotensin II-induced contraction was converted into a relative value (%) that is based on the angiotensin II (10 nM)-induced contraction in the absence of the compounds of each example. From the concentration-response curve obtained therefrom, 50% inhibition concentration (IC50 value) was calculated by using SAS Preclinical Package Ver5.0 (trade name, manufactured by SAS institute Japan Co., Tokyo, Japan), which is a statistical analysis program.
As shown in the Table 1, it was confirmed that the compounds of the invention have a potent angiotensin II antagonistic activity.

[3] = COST cells transfected with Gal4 (aa 1-147)/human PPARγ2 (aa 182-505) chimera, luciferase reporter, 16 hours, read-out: EC50

T1 sequence (P37231 182-505): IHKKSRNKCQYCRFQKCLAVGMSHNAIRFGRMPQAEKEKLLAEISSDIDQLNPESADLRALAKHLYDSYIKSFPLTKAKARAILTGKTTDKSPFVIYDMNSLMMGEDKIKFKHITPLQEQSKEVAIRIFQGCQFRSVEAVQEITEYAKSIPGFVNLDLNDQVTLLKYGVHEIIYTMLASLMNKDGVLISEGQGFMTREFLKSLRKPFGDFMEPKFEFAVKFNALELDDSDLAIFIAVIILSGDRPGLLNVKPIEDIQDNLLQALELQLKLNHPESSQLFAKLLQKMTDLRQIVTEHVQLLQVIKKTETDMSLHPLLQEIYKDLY
T1 sequence (P04386 1-147 partner limits assumed): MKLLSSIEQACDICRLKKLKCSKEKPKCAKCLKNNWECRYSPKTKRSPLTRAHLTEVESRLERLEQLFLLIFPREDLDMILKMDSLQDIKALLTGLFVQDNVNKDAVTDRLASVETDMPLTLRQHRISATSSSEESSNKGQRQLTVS

Row | Compound | EC50 [1, 3] | IC50 [2] | EC50 [1]
1 | CCCCc1cc(C)n(Cc2ccccc2)c(=O)c1Cc1ccc(-c2ccccc2-c2nnn[nH]2)cc1 [Example 1, 3-{[2′-(1H-tetrazol-5-yl)biphenyl-4-yl]methyl}-1-benzyl-4-butyl-6-methylpyridin-2(1H)-one] | 400 nM | – | –
2 | CCCCc1cc(C)n(Cc2ccccc2)c(=O)c1Cc1ccc(-c2ccccc2-c2noc(=O)[nH]2)cc1 [Example 2, 3-{4′-[(1-benzyl-4-butyl-6-methyl-2-oxo-1,2-dihydropyridin-3-yl)methyl]biphenyl-2-yl}-1,2,4-oxadiazol-5(4H)-one] | 260 nM | – | –
3 | CCCc1cc(C)n(Cc2ccccc2)c(=O)c1Cc1ccc(-c2ccccc2-c2nnn[nH]2)cc1 [Example 3, 3-{[2′-(1H-tetrazol-5-yl)biphenyl-4-yl]methyl}-1-benzyl-6-m ethyl-4-propylpyridin-2(1H)-one] | 320 nM | – | –
4 | CCCc1cc(C)n(Cc2ccccc2)c(=O)c1Cc1ccc(-c2ccccc2-c2noc(=O)[nH]2)cc1 [Example 4, 3-{4′-[(1-benzyl-6-methyl-2-oxo-4-propyl-1,2-dihydropyridin-3-yl)methyl]biphenyl-2-yl}-1,2,4-oxadiazol-5(4H)-one] | 200 nM | – | –
5 | CCCCCc1cc(C)n(Cc2ccccc2)c(=O)c1Cc1ccc(-c2ccccc2-c2nnn[nH]2)cc1 [Example 5, 3-{[2′-(1H-tetrazol-5-yl)biphenyl-4-yl]methyl}-1-benzyl-6-m ethyl-4-pentylpyridin-2(1H)-one] | 500 nM | – | –
6 | CCCCCc1cc(C)n(Cc2ccccc2)c(=O)c1Cc1ccc(-c2ccccc2-c2noc(=O)[nH]2)cc1 [Example 6, 3-{4′-[(1-benzyl-6-methyl-2-oxo-4-pentyl-1,2-dihydropyridin-3-yl)methyl]biphenyl-2-yl}-1,2,4-oxadiazol-5(4H)-one] | 260 nM | – | –
7 | CCCCc1cc(C)n(CCc2ccccc2)c(=O)c1Cc1ccc(-c2ccccc2-c2nnn[nH]2)cc1 [Example 7, 3-{[2′-(1H-tetrazol-5-yl)biphenyl-4-yl]methyl}-4-butyl-6-methyl-1-phenethylpyridin-2(1H)-one] | 270 nM | 580 nM | –
8 | CCCCc1cc(C)n(CCc2ccccc2)c(=O)c1Cc1ccc(-c2ccccc2-c2noc(=O)[nH]2)cc1 [Example 8, 3-{4′-[(4-butyl-6-methyl-2-oxo-1-phenethyl-1,2-dihydropyridin-3-yl)methyl]biphenyl-2-yl}-1,2,4-oxadiazol-5(4H)-one] | 200 nM | 390 nM | –
9 | CCCCc1cc(C)n(CCOC)c(=O)c1Cc1ccc(-c2ccccc2-c2nnn[nH]2)cc1 [Example 9, 3-{[2′-(1H-tetrazol-5-yl)biphenyl-4-yl]methyl}-4-butyl-1-(2-methoxyethyl)-6-methylpyridin-2(1H)-one] | 560 nM | 160 nM | –
10 | CCCCc1cc(C)n(CCOC)c(=O)c1Cc1ccc(-c2ccccc2-c2noc(=O)[nH]2)cc1 [Example 10, 3-{4′-{[4-butyl-1-(2-methoxyethyl)-6-methyl-2-oxo-1,2-dihydropyridin-3-yl)methyl]biphenyl-2-yl}-1,2,4-oxadiazol-5(4H)-one] | 450 nM | 190 nM | –
11 | CCCc1nc2c(C)cc(-c3nc4ccccc4n3C)cc2n1Cc1ccc(-c2ccccc2C(=O)O)cc1 [telmisartan, reference compound] | – | – | 1000 to 5000 nM

Now from value to compound, other results behind:

Row | EC50 [1, 3] | IC50 [2] | Compound | EC50 [1]
12 | 2220 nM | 330 nM | CCCCc1cc(C)n(-c2ncc(OCC)cn2)c(=O)c1Cc1ccc(-c2ccccc2-c2nnn[nH]2)cc1 [Example 11, 3-{[2′-(1H-tetrazol-5-yl)biphenyl-4-yl]methyl}-4-butyl-1-(5-ethoxypyrimidin-2-yl)-6-methylpyridin-2(1H)-one] | –
13 | 590 nM | 460 nM | CCCCc1cc(C)n(-c2ncc(OCC)cn2)c(=O)c1Cc1ccc(-c2ccccc2-c2noc(=O)[nH]2)cc1 [Example 12, 3-{4′-{[4-butyl-1-(5-ethoxypyrimidin-2-yl)-6-methyl-2-oxo-1,2-dihydropyridin-3-yl]methyl}biphenyl-2-yl}-1,2,4-oxadiazol-5(4H)-one] | –
14 | 1270 nM | 540 nM | CCCCc1cc(C)n(-c2ncc(OC)cn2)c(=O)c1Cc1ccc(-c2ccccc2-c2noc(=O)[nH]2)cc1 [Example 14, 3-{4′-{[4-butyl-1-(5-methoxypyrimidin-2-yl)-6-methyl-2-oxo-1,2-dihydropyridin-3-yl]methyl}biphenyl-2-yl}-1,2,4-oxadiazol-5(4H)-one] | –
15 | 1660 nM | 460 nM | CCCCc1cc(C)n(-c2ccccn2)c(=O)c1Cc1ccc(-c2ccccc2-c2nnn[nH]2)cc1 [Example 15, 3-{[2′-(1H-tetrazol-5-yl)biphenyl-4-yl]methyl}-4-butyl-6-methyl-1-(pyridin-2-yl)pyridin-2(1H)-one] | –
16 | 1400 nM | – | CCCCc1cc(C)n(-c2ccccn2)c(=O)c1Cc1ccc(-c2ccccc2-c2noc(=O)[nH]2)cc1 [Example 16, 3-{4′-{[4-butyl-6-methyl-2-oxo-1-(pyridin-2-yl)-1,2-dihydropyridin-3-yl]methyl}biphenyl-2-yl}-1,2,4-oxadiazol-5(4H)-one] | –
17 | 580 nM | – | CCCOc1cc(C)n(Cc2ccccc2)c(=O)c1Cc1ccc(-c2ccccc2-c2nnn[nH]2)cc1 [Example 17, 3-{[2′-(1H-tetrazol-5-yl)biphenyl-4-yl]methyl}-1-benzyl-6-m ethyl-4-propoxypyridin-2(1H)-one] | –
18 | 140 nM | – | CCCOc1cc(C)n(Cc2ccccc2)c(=O)c1Cc1ccc(-c2ccccc2-c2noc(=O)[nH]2)cc1 [Example 18, 3-{4′-[(1-benzyl-6-methyl-2-oxo-4-propoxy-1,2-dihydropyridin-3-yl)methyl]biphenyl-2-yl}-1,2,4-oxadiazol-5(4H)-one] | –
